The results in this text go back to PubChem BioAssay (NCI).

Several values for one entry are separate records, joined by “and”; a condition that tells them apart may be missing. Equal values may be shown once.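 Dose response: 5 concentrations. Exposure: 48 h. Format: 96-well plates. Endpoint: linear interpolation; highest concentration if not reached. GI50 marks 50% less growth. The concentration for full growth arrest is given as TGI.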 Some results are limits rather than exact numbers.

Test systems include HS 578T breast; CCRF-CEM leukemia; UACC-257 melanoma; UACC-62 melanoma; DU-145 prostate; MOLT-4 leukemia; K-562 leukemia; ACHN renal; T-47D breast; MCF7 breast.
Common to all, as to experiment: NCI tumour cell line growth inhibition, 48 h

Consider `COC(=O)c1c(C)cc(OC)c(C/C=C(\C)CCCc2coc(C=C(C)C)c2)c1OC`, for which the TGI in the experiment with HS 578T breast is 79.7 µM; with CCRF-CEM leukemia, more than 100 µM; in the experiment with UACC-257 melanoma, more than 100 µM; in the experiment on UACC-62 melanoma, more than 100 µM; with DU-145 prostate, more than 100 µM; with MOLT-4 leukemia it was more than 100 µM. In addition, the TGI in the experiment on K-562 leukemia, in the experiment on ACHN renal, in the experiment with T-47D breast and with MCF7 breast was more than 100 µM each time.

Regarding `COc1ccc(Cl)cc1NC(=O)c1ccc(NC2=C(Cl)C(=O)N(Cc3ccccc3)C2=O)cc1`, the GI50 with HS 578T breast is 37.1 µM; in the experiment on CCRF-CEM leukemia, 3.99 µM; with UACC-257 melanoma, 94.1 µM; with UACC-62 melanoma, 33.7 µM; with DU-145 prostate, more than 100 µM; with MOLT-4 leukemia, 1.43 µM. In addition, the GI50 with K-562 leukemia was 6.87 µM; in the experiment on ACHN renal, 94.2 µM; in the experiment with T-47D breast it was more than 100 µM; in the experiment with MCF7 breast, 5.92 µM. For the same compound, the TGI with HS 578T breast is more than 100 µM; with CCRF-CEM leukemia, 94.5 µM; with UACC-257 melanoma, more than 100 µM; in the experiment on UACC-62 melanoma, more than 100 µM; in the experiment on DU-145 prostate it was more than 100 µM; with MOLT-4 leukemia, 13.4 µM. Also, the TGI was more than 100 µM with K-562 leukemia, more than 100 µM with ACHN renal, more than 100 µM in the experiment on T-47D breast and 34.3 µM with MCF7 breast.

Regarding `C=C(C)[C@@H]1CC[C@]2(CN)CC[C@]3(C)[C@H](CC[C@@H]4[C@@]5(C)CCCNC(C)(C)[C@@H]5CC[C@]43C)[C@@H]12`, the GI50 was 1.8 µM in the experiment with HS 578T breast; 2.27 µM in the experiment with CCRF-CEM leukemia; 2.09 µM in the experiment with UACC-257 melanoma; 1.87 µM with UACC-62 melanoma; 1.59 µM in the experiment with DU-145 prostate; 1.93 µM in the experiment on MOLT-4 leukemia. In addition, the figures for the GI50 in the experiment with ACHN renal, in the experiment on T-47D breast and in the experiment on MCF7 breast were 1.77 µM, 1.88 µM and 1.27 µM, respectively. For the same compound, the TGI was 4 µM in the experiment with HS 578T breast; 4.92 µM in the experiment on CCRF-CEM leukemia; 4.35 µM in the experiment on UACC-257 melanoma; 3.42 µM in the experiment on UACC-62 melanoma; 2.97 µM with DU-145 prostate; 4.47 µM with MOLT-4 leukemia. In addition, the TGI in the experiment with ACHN renal came to 3.19 µM; with T-47D breast it was 3.81 µM; in the experiment with MCF7 breast, 2.7 µM.

`Cc1nc2sccn2c1-c1nc2sccn2c1/C=C1/C(=O)Nc2ccccc21`: the GI50 with HS 578T breast is 1.96 µM; with CCRF-CEM leukemia, 3.79 µM; with UACC-257 melanoma, 16.3 µM; with UACC-62 melanoma, 5.15 µM; with DU-145 prostate, 4.64 µM; with K-562 leukemia it was more than 100 µM. Also, the GI50 with ACHN renal was 7.72 µM; with T-47D breast it was 3.47 µM; in the experiment with MCF7 breast, 1.5 µM. In addition, the TGI with HS 578T breast is 9.75 µM; with CCRF-CEM leukemia it was more than 100 µM; with UACC-257 melanoma, 91.9 µM; in the experiment with UACC-62 melanoma it was more than 100 µM; with DU-145 prostate it was 21.5 µM; in the experiment with K-562 leukemia it was more than 100 µM. Further, the TGI with ACHN renal was more than 100 µM; in the experiment on T-47D breast it was 63.6 µM; in the experiment on MCF7 breast, 6.51 µM.

As to `COc1nc(=O)n(C2C=CC(=O)O2)cc1F` (centres undefined), the GI50 in the experiment with HS 578T breast was 13.4 µM; in the experiment on UACC-257 melanoma, 11.6 µM; in the experiment with UACC-62 melanoma, 5.53 µM; in the experiment with DU-145 prostate it was 11.1 µM; in the experiment on ACHN renal, 2.11 µM; in the experiment with T-47D breast it was 2.24 µM. In the experiment with MCF7 breast, the GI50 is 2.3 µM. Further, the TGI in the experiment with HS 578T breast worked out at 40.8 µM; in the experiment with UACC-257 melanoma, 31.4 µM; in the experiment with UACC-62 melanoma, 18.7 µM; with DU-145 prostate, 28.2 µM; in the experiment with ACHN renal, 5.45 µM; with T-47D breast, 7.24 µM. The same compound had a TGI with MCF7 breast of 10.9 µM.

As to `CCCCCCCCSC1=C(Cl)C(=O)C(OC)=C(OC)C1=O`, the TGI in the experiment with HS 578T breast was 66.6 µM; in the experiment with CCRF-CEM leukemia it was more than 100 µM; in the experiment with UACC-257 melanoma it was 21.4 µM; in the experiment on UACC-62 melanoma, 24 µM; with DU-145 prostate, 40.5 µM; in the experiment on K-562 leukemia, more than 100 µM. The TGI in the experiment with ACHN renal was found to be 23 µM; in the experiment on T-47D breast, 36.2 µM; in the experiment with MCF7 breast, 17.4 µM.

Take `CCSc1nc(N=Cc2ccccc2O)c2cn[nH]c2n1`: the GI50 is 20.9 µM in the experiment with HS 578T breast; 56.7 µM in the experiment with UACC-257 melanoma; 16.4 µM in the experiment on UACC-62 melanoma; 72.1 µM in the experiment with DU-145 prostate; 52.8 µM in the experiment on MOLT-4 leukemia; 41.6 µM in the experiment on K-562 leukemia. Moreover, the GI50 is 29.8 µM in the experiment on ACHN renal, 33.4 µM in the experiment on T-47D breast and 19.9 µM in the experiment on MCF7 breast. In addition, the TGI in the experiment with HS 578T breast is 69.2 µM; with UACC-257 melanoma, more than 100 µM; in the experiment on UACC-62 melanoma, 54.7 µM; in the experiment on DU-145 prostate, more than 100 µM; in the experiment with MOLT-4 leukemia it was more than 100 µM; with K-562 leukemia it was more than 100 µM. Also, the values for the TGI in the experiment with ACHN renal, in the experiment with T-47D breast and with MCF7 breast were more than 100 µM, more than 100 µM and 59.4 µM, respectively.

`N#CC(I)CS(=O)(=O)c1ccccc1` (centres undefined): the GI50 in the experiment with HS 578T breast was 26.5 µM; with UACC-257 melanoma it was 17 µM; in the experiment on UACC-62 melanoma, 16.6 µM; with DU-145 prostate, 17.2 µM; with ACHN renal it was 1.87 µM; in the experiment with T-47D breast, 18.4 µM. The GI50 in the experiment on MCF7 breast is 16.7 µM. For the same compound, the TGI was found to be 61.4 µM in the experiment with HS 578T breast; 31.2 µM in the experiment with UACC-257 melanoma; 30.3 µM in the experiment on UACC-62 melanoma; 31.3 µM in the experiment on DU-145 prostate; 3.35 µM in the experiment with ACHN renal; 42.6 µM in the experiment with T-47D breast. Besides, the TGI in the experiment on MCF7 breast is 39.9 µM.

As for `CC(C)=CCC1=C(O)c2ccccc2C(=O)C1=O`, the TGI with HS 578T breast is more than 100 µM; with CCRF-CEM leukemia, > 100 µM and 18.5 µM; in the experiment with UACC-257 melanoma, more than 100 µM; with UACC-62 melanoma, more than 100 µM; with DU-145 prostate, more than 100 µM; in the experiment with K-562 leukemia, more than 100 µM. Also, the TGI in the experiment on ACHN renal, with T-47D breast and in the experiment with MCF7 breast was more than 100 µM throughout. The GI50 with UACC-257 melanoma was > 100 µM and 28.6 µM; in the experiment with UACC-62 melanoma it was > 100 µM and 13.4 µM; with DU-145 prostate, 23.5 µM; with MCF7 breast, 21.8 µM.
